Experiment: xn = mol fraction of the nth substance listed
Settings: 101 kPa, Liquid; for speed of sound: Sing-around technique in a fixed-path interferometer

C[S+](C)[O-] [dimethyl sulfoxide] + O
x1 = 0.0385
Settings | mass density [kg/m3] | speed of sound [m/s]
288.15 K | 1019.8 | 1555.2
293.15 K | 1018.1 | 1562.5
298.15 K | 1016.2 | 1568.5
303.15 K | 1014.4 | 1573.4
308.15 K | 1012.3 | 1577
313.15 K | 1010.2 | 1579.4

CC(C)(C)O [2-methylpropan-2-ol] + O
x2 = 0.9615
Settings | mass density [kg/m3] | speed of sound [m/s]
288.15 K | 980.2 | 1613.7
293.15 K | 978.4 | 1612.4
298.15 K | 976.6 | 1610
303.15 K | 973.6 | 1606.5
308.15 K | 971.5 | 1602.5
313.15 K | 968.8 | 1597
